From paper PMC9250534, “Synthesis and direct assay of large macrocycle diversities by combinatorial late-stage modification at picomole scale” (Nature Communications, 2022)
“And” between values parts separate entries of the source, which are not always exact repeats. Equal entries are not always repeated. Where two headings read alike, the source gives them in different places.

Key:
[1] = molecular target: T1, thrombin (Homo sapiens, UniProt P00734); assay: Determination of Kis of purified thrombin inhibitors (IC50, Cheng-Prusoff); format: biochemical; settings: for % thrombin activity: replicates 1-3; for IC50 / Ki: thrombin
T1 construct: consists of two polypeptide chains of 36 (light chain) and 259 amino acid
Procedure: Purified thrombin inhibitors (10 mM in DMSO) were diluted to 80 μM in 125 μL of Tris buffer (100 mM Tris-Cl, 150 mM NaCl, 10 mM MgCl2, 1 mM CaCl2) containing 0.1% w/v BSA, 0.01% v/v Triton-X100 and […]. The macrocycles were diluted two-fold in Tris buffer containing 0.1% w/v BSA, 0.01% v/v Triton-X100 and 1% DMSO in buffer. The thrombin activity was measured in 96-well plates (Greiner, 655101) and the residual activity calculated as described above in the assay used to measure activities of HPLC-separated fractions of screening hits.
Supplementary Figure 7. Thrombin inhibitors M1 to M5. a, Chemical structures and analytical HPLC chromatograms obtained using a 0-100% MeCN/H2O gradient over 15 minutes. b, For all macrocycles, an 18 -point, two-fold serial dilution was performed in 50 µL volumes. Thrombin was added (50 µL, 2 nM final conc.), followed 10 minutes later by fluorogenic substrate Z -Gly-Gly-Arg-AMC (50 µL, 50 µM final conc.). The increase in fluorescence was measured over 30 minutes.
Residual thrombin activity was determined by dividing the slope of fluorescenc e intensity over time for each well by the slope of control wells without macrocycle. Mean values and SDs are indicated for three independent thrombin inhibition measurements.
(1 picture or pasted object on this page, not shown here)

[2] = molecular target: T1, thrombin; assay: Thrombin inhibition screen of crude macrocycle reactions (residual thrombin activity, fluorogenic substrate Z-Gly-Gly-Arg-AMC); format: biochemical; settings: 10 µM macrocycle concentration, macrocycles containing acid 14, crude reaction
Outline: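 Each crude macrocycle (10 μM) was preincubated 10 min at room temperature with thrombin (2 nM final) in Tris-Cl pH 7.4 containing NaCl, MgCl2, CaCl2, 0.1% BSA, 0.01% Triton X-100 and 0.6% DMSO. Z-Gly-Gly-Arg-AMC (50 μM final) was then added. Inhibition came from fluorescence slopes relative to DMSO-only controls.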

[3] = average of 3 replicates, read-out: IC50 (nM) Average
[4] = replicate 1, Cheng-Prusoff, read-out: Ki (nM) Replicate 1
[5] = replicate 1, read-out: IC50 (nM) Replicate 1
[6] = replicate 2, Cheng-Prusoff, read-out: Ki (nM) Replicate 2
[7] = replicate 2, read-out: IC50 (nM) Replicate 2
[8] = replicate 3, Cheng-Prusoff, read-out: Ki (nM) Replicate 3
[9] = replicate 3, read-out: IC50 (nM) Replicate 3

CC(C)[C@H]1NC(=O)CCSSCCNC(=O)[C@H](CNC(=O)c2ccc(Cl)s2)NC(=O)c2cccc(c2)CNC1=O [M1]
% thrombin activity ([1]; Log [Macrocycle] M -8.8): 98.0% and 96.9% and 96.6%
% thrombin activity ([1]; Log [Macrocycle] M -9.1): 99.2% and 98.3% and 98.9%
% thrombin activity ([1]; Log [Macrocycle] M -9.4): 99.9% and 99.1% and 103.5%
% thrombin activity ([1]; Log [Macrocycle] M -9.7): 100.7% and 100.1% and 99.6%
% thrombin activity ([1]; Log[Macrocycle] M -4.6): -0.0543% and 1.1% and -0.4%
% thrombin activity ([1]; Log[Macrocycle] M -4.9): 0.156% and 0.7% and 0.8%
% thrombin activity ([1]; Log[Macrocycle] M -5.2): 0.8% (2×) and 1.8%
% thrombin activity ([1]; Log[Macrocycle] M -5.5): 1.9% (2×) and 2.1%
% thrombin activity ([1]; Log[Macrocycle] M -5.8): 3.9% and 4.1% and 4.6%
% thrombin activity ([1]; Log[Macrocycle] M -6.1): 7.3% and 6.9% and 7.7%
% thrombin activity ([1]; Log[Macrocycle] M -6.4): 13.7% and 13.0% and 13.6%
% thrombin activity ([1]; Log[Macrocycle] M -6.7): 22.7% and 21.8% and 22.6%
% thrombin activity ([1]; Log[Macrocycle] M -7.0): 35.5% and 35.6% and 37.1%
% thrombin activity ([1]; Log[Macrocycle] M -7.3): 54.7% and 53.1% and 53.5%
% thrombin activity ([1]; Log[Macrocycle] M -7.6): 68.7% and 65.3% and 67.8%
% thrombin activity ([1]; Log[Macrocycle] M -7.9): 81.7% and 81.8% and 83.6%
% thrombin activity ([1]; Log[Macrocycle] M -8.2): 91.6% and 89.3% and 88.1%
% thrombin activity ([1]; Log[Macrocycle] M -8.5): 94.7% and 92.6% and 94.4%
IC50 [1, 3]: 58 nM
Ki [1, 4]: 45 nM
IC50 [1, 5]: 59 nM
Ki [1, 6]: 43 nM
IC50 [1, 7]: 56 nM
Ki [1, 8]: 45 nM
IC50 [1, 9]: 58 nM

O=C1CCSSCCNC(=O)C(CNC(=O)c2ccc(Cl)s2)NC(=O)c2cccc(c2)CNC(=O)C(Cc2ccccc2)N1 (stereo not drawn) [M2]
% thrombin activity, Original screen ([2]; original screen): 6.9%
% thrombin activity, Repeat screen ([2]; replicate reaction and screen): 6.5%
% thrombin activity ([1]; Log [Macrocycle] M -8.8): 99.5% and 97.4% and 98.4%
% thrombin activity ([1]; Log [Macrocycle] M -9.1): 100.1% (2×) and 99.4%
% thrombin activity ([1]; Log [Macrocycle] M -9.4): 100.7% and 100.1% and 99.7%
% thrombin activity ([1]; Log [Macrocycle] M -9.7): 100.6% and 99.6% and 99.8%
% thrombin activity ([1]; Log[Macrocycle] M -4.6): 3.5% and 3.8% and 4.4%
% thrombin activity ([1]; Log[Macrocycle] M -4.9): 4.9% (2×) and 5.4%
% thrombin activity ([1]; Log[Macrocycle] M -5.2): 6.7% and 6.5% and 7.1%
% thrombin activity ([1]; Log[Macrocycle] M -5.5): 9.9% and 8.4% and 9.6%
% thrombin activity ([1]; Log[Macrocycle] M -5.8): 16.3% and 13.3% and 13.6%
% thrombin activity ([1]; Log[Macrocycle] M -6.1): 26.3% and 21.4% and 21.2%
% thrombin activity ([1]; Log[Macrocycle] M -6.4): 42.5% and 32.8% and 34.8%
% thrombin activity ([1]; Log[Macrocycle] M -6.7): 58.0% and 47.2% and 49.8%
% thrombin activity ([1]; Log[Macrocycle] M -7.0): 71.8% and 64.0% and 65.5%
% thrombin activity ([1]; Log[Macrocycle] M -7.3): 83.6% and 77.5% and 79.8%
% thrombin activity ([1]; Log[Macrocycle] M -7.6): 92.7% and 85.4% and 86.8%
% thrombin activity ([1]; Log[Macrocycle] M -7.9): 95.0% and 92.0% and 93.5%
% thrombin activity ([1]; Log[Macrocycle] M -8.2): 99.2% and 94.0% and 94.1%
% thrombin activity ([1]; Log[Macrocycle] M -8.5): 98.9% and 96.9% and 97.6%
IC50 [1, 3]: 214 nM
Ki [1, 4]: 210 nM
IC50 [1, 5]: 270 nM
Ki [1, 6]: 138 nM
IC50 [1, 7]: 179 nM
Ki [1, 8]: 149 nM
IC50 [1, 9]: 193 nM

CC(C)[C@@H]1NC(=O)CCSSCCNC(=O)[C@H](CNC(=O)c2ccc(Cl)s2)NC(=O)c2cccc(c2)CNC1=O [M3]
% thrombin activity ([1]; Log [Macrocycle] M -8.8): 98.3% and 97.3% and 97.1%
% thrombin activity ([1]; Log [Macrocycle] M -9.1): 98.8% and 98.0% and 98.2%
% thrombin activity ([1]; Log [Macrocycle] M -9.4): 99.9% and 97.2% and 99.1%
% thrombin activity ([1]; Log [Macrocycle] M -9.7): 93.6% and 99.4% (2×)
% thrombin activity ([1]; Log[Macrocycle] M -4.6): -0.0344% and 0.5% and 0.739%
% thrombin activity ([1]; Log[Macrocycle] M -4.9): 0.656% and 1.5% and 1.0%
% thrombin activity ([1]; Log[Macrocycle] M -5.2): 2.2% and 5.0% and 2.4%
% thrombin activity ([1]; Log[Macrocycle] M -5.5): 4.8% and 4.9% and 5.3%
% thrombin activity ([1]; Log[Macrocycle] M -5.8): 9.4% and 9.7% (2×)
% thrombin activity ([1]; Log[Macrocycle] M -6.1): 17.5% and 15.4% and 16.3%
% thrombin activity ([1]; Log[Macrocycle] M -6.4): 29.4% and 28.1% and 27.8%
% thrombin activity ([1]; Log[Macrocycle] M -6.7): 45.2% and 42.3% and 41.8%
% thrombin activity ([1]; Log[Macrocycle] M -7.0): 60.5% and 58.8% and 57.9%
% thrombin activity ([1]; Log[Macrocycle] M -7.3): 75.1% and 75.3% and 74.4%
% thrombin activity ([1]; Log[Macrocycle] M -7.6): 85.8% and 81.9% and 83.6%
% thrombin activity ([1]; Log[Macrocycle] M -7.9): 92.4% and 87.2% and 91.4%
% thrombin activity ([1]; Log[Macrocycle] M -8.2): 97.7% and 93.3% and 94.6%
% thrombin activity ([1]; Log[Macrocycle] M -8.5): 97.5% and 94.4% and 96.1%
IC50 [1, 3]: 160 nM
Ki [1, 4]: 134 nM
IC50 [1, 5]: 170 nM
Ki [1, 6]: 121 nM
IC50 [1, 7]: 160 nM
Ki [1, 8]: 119 nM
IC50 [1, 9]: 150 nM

CC(C)C1NC(=O)CCSCSCCNC(=O)C(CNC(=O)c2ccc(Cl)s2)NC(=O)c2cccc(c2)CNC1=O (stereo not drawn) [M4]
% thrombin activity ([1]; Log [Macrocycle] M -4.5): 0.233% and 0.231% and 2.7%
% thrombin activity ([1]; Log [Macrocycle] M -4.8): 1.1% and 1.5% and 2.1%
% thrombin activity ([1]; Log [Macrocycle] M -5.1): 2.6% and 3.2% and -2.3%
% thrombin activity ([1]; Log [Macrocycle] M -5.4): 3.6% and 5.7% and 3.8%
% thrombin activity ([1]; Log [Macrocycle] M -5.7): 8.1% and 9.4% and 6.2%
% thrombin activity ([1]; Log [Macrocycle] M -6.0): 12.9% and 16.1% and 11.7%
% thrombin activity ([1]; Log [Macrocycle] M -6.3): 22.1% and 27.3% and 19.3%
% thrombin activity ([1]; Log [Macrocycle] M -6.6): 34.1% and 41.1% and 30.9%
% thrombin activity ([1]; Log [Macrocycle] M -6.9): 55.7% and 58.5% and 45.5%
% thrombin activity ([1]; Log [Macrocycle] M -7.2): 67.0% and 71.8% and 59.8%
% thrombin activity ([1]; Log [Macrocycle] M -7.5): 78.0% and 82.2% and 70.6%
% thrombin activity ([1]; Log [Macrocycle] M -7.8): 96.6% and 99.4% and 81.6%
% thrombin activity ([1]; Log [Macrocycle] M -8.1): 97.9% and 103.9% and 87.1%
% thrombin activity ([1]; Log [Macrocycle] M -8.4): 104.8% and 107.0% and 92.8%
% thrombin activity ([1]; Log [Macrocycle] M -8.7): 103.7% and 107.0% and 93.5%
% thrombin activity ([1]; Log [Macrocycle] M -9.0): 106.1% and 107.4% and 94.0%
% thrombin activity ([1]; Log [Macrocycle] M -9.3): 106.8% and 100.7% and 99.2%
% thrombin activity ([1]; Log [Macrocycle] M -9.6): 107.9% and 105.2% and 99.6%
IC50 [1, 3]: 108 nM
IC50 [1, 5]: 119 nM
Ki ([1]; replicate 1, read-out: Ki (nM) Replicate 1): 92 nM
IC50 [1, 7]: 106 nM
Ki ([1]; replicate 2, read-out: Ki (nM) Replicate 2): 82 nM
IC50 [1, 9]: 99 nM
Ki ([1]; replicate 3, read-out: Ki (nM) Replicate 3): 76 nM
